{"source": "patent US20250186467A1", "about": "“METHODS OF TREATING MEDICAL CONDITIONS USING STAMPIDINE OR A RELATED COMPOUND” (ROME Therapeutics, Inc., priority 2022, published 2025)", "key": {"[1]": {"tested_on": "interferon-stimulated gene (ISG) response", "assay": "In vivo decitabine challenge model", "parameters": "species or system C57BL/6 mice", "settings": "stampidine 3, 15, 75 mg/kg i.p. daily with decitabine 5 mg/kg i.p., Day 0 to Day 4; spleen, liver, terminal colon", "description": "Twenty 9-11 week old C57BL/6 mice were acclimated to the lab for at least 5 days. Stampidine was prepared in a 20% HP-b-CD in water solution for i.p. administration. Decitabine (Sigma) was dissolved in sterile PBS (pH 7.4) and dosed within 30 minutes of preparation of the solution. Doses of both stampidine and decitabine were administered i.p. once a day, every day from Day 0 to Day 4.\nOn Day 0, mice were split into four groups of five mice and given their first dose of decitabine (i.p., 5 mg/kg) and stampidine. Dosing groups were:\nDecitabine and stampidine were administered daily from Day 0 to Day 4. All mice were euthanized 1 hour after the last dose administration on Day 4. Spleens, liver, and terminal colon were collected, along with plasma from each animal. The fold changes in interferon-stimulated gene (ISG) expression were calculated by first normalizing to GAPDH gene using the Delta CT method. The CT (gene of interest)−CT (reference gene) was calculated to generate a delta CT for all samples. The fold change was then calculated by taking the […](Delta CT(control)−Delta CT (experimental). The control in this example was the PBS control animal group. The Taqman duplex assay was used to determine levels of GAPDH v. IFIT2."}, "PBMCs": {"tested_on": "PBMCs", "assay": "Decitabine-stimulated human PBMC assay, cell viability", "type": "cell-based", "settings": "PBMCs with 10 μM decitabine, 5 days", "description": "After 5 days, the plate was spun down at 100×G for 5 minutes. Supernatants (100 μL) was collected for interferon β (IFN-β) analysis using the MSD assay noted above, and any residual supernatant was stored at −80° C."}, "[2]": {"tested_on": "phosphorylated TANK-binding kinase 1 (pTBK1)", "assay": "UVB-induced pTBK1 in HaCaT cells", "type": "cell-based", "settings": "96 hours of treatment before UVB, 24 hours post-UVB, ELISA", "description": "HaCaT cells were plated in 6-well plates at a density of ˜100 k/well in HaCaT media (DMEM, optimized 1× (Addex Bio)+1% pen strep (Gibco)+5% heat inactivated fetal bovine serum (Gibco)). The cells were then cultured at 37° C. overnight. The next day, the cells were treated with the test compounds. Each test compound was diluted and added to media aliquots to provide desired concentrations. To add the test compound+media mixture, an equivalent amount of media from each well was aspirated and then replenished with the media dosed with the test compound. The cells were then cultured for an additional 96 hours with compound treatment prior to UVB exposure.\nThe media was then aspirated from the wells, with the remaining cells at least 80% confluent in each well. One mL of PBS was then added to each well, and the plate was then placed under a UVB lamp. A UVB sensor was positioned near the plate to register the plate's exposure. The cells were exposed to the UVB light until they reached 0.1 mJ/cm^2. Then the plate was covered and transferred to a sterile hood for processing. […]\nA RIPA lysis buffer (#BP-115, Boston Bio-Products) was added to a Halt protease and […] inhibitor cocktail (#78440, ThermoFisher), and the mixture was cooled on ice. […] The protein concentration of the cell lysate was measured using Pierce™ Rapid Gold BCA Protein Assay Kit #AF3225 (ThermoFisher). […]"}}}
{"smiles": "COC(=O)[C@H](C)N[P@](=O)(OC[C@@H]1C=C[C@H](n2cc(C)c(=O)[nH]c2=O)O1)Oc1ccc(Br)cc1", "note": "[Stampidine, methyl ((S)-(4-bromophenoxy)(((2S,5R)-5-(5-methyl-2,4-dioxo-3,4-dihydropyrimidin-1(2H)-yl)-2,5-dihydrofuran-2-yl)methoxy)phosphoryl)-L-alaninate]", "values": [{"measurement": "change in ISG response", "setting": "[1]", "result": "showed the change in ISG response which was most prominent in the spleen tissue"}, {"measurement": "cellular toxicity", "setting": "PBMCs", "result": "without any cellular toxicity"}, {"measurement": "reduction of UVB-induced pTBK1", "setting": "[2]", "result": "showed a reduction of UVB-induced phosphorylated TANK-binding kinase 1 (pTBK1)"}]}
